Reference: patent publication US20180207165A1, “METHODS AND COMPOSITIONS FOR STIMULATING BENEFICIAL BACTERIA IN THE GASTROINTESTINAL TRACT” (Rijksuniversiteit Groningen, priority 2012, published 2018)

Assays:
[1] = test system: F. prausnitzii; assay: Stability of F. prausnitzii synbiotic formulations after exposure to ambient air (CFU count); parameters: species or system Faecalibacterium prausnitzii; conditions: ingredient in lyophilized formulation
Protocol: To produce a formulation with living faecalibacteria that are stable for at least 24 h under aerobic conditions, series of experiments were performed with different combinations of ingredients. Faecalibacteria were grown overnight in broth culture medium, centrifuged and the pellet was washed with anaerobic phosphate buffered saline (PBS) and centrifuged again. The mixtures were frozen at −20° C. and subsequently lyophilized.
After lyophilizing, the formulations were exposed to air for the indicated time periods. The preparations were re-suspended in phosphate buffer and a 10 fold-dilution series was plated on anaerobic growth medium agar. The Colony-forming units were counted and compared with a non exposed t=0 time point.
The lyophilized granules obtained according to step 2 were stored in air tight containers under ambient aerobic conditions. For stability and viability studies granules were exposed to the ambient air at defined period up to 24 h. After aerobic exposures the granules were processed anaerobically under anaerobic tent. The granules were diluted and rehydrated in oxygen free phosphate buffered saline (pH 7.2) supplemented with 0.05% cysteine and ten-fold dilution series were plated on YCFAG agar medium. Colony forming units were determined by counting the colonies formed on the agar plates after 24 h of incubations at 37° C.

[2] = test system: Faecalibacterium prausnitzii; assay: Riboflavin intervention trial: FISH count of F. prausnitzii in fecal samples; format: in vivo, human
Protocol: (§1) A human intervention study was performed to investigate the effect of riboflavin on the numbers of Faecalibacterium prausnitzii in the gut. A group of 8 volunteers (body weight 60 to 90 kg) were asked to take 1 oral dose of 100 mg riboflavin supplement per day for 14 days.
(§2) Two samples were taken in a period of two weeks before the intake, as baseline samples, two samples (one per week) were taken during the intake and one sample a week after intake. The number of F. prausnitzii and that of other bacterial groups were determined by FISH with a specific probes as describe before (Harmsen et al. Appl Environ Microbiol. 2002 June; 68(6):2982-90). The numbers of faecalibacteria of the samples taken before and during the intake were averaged and all samples were plotted in FIG. 1.

[3] = Butyrate production in human volunteers on oral riboflavin; format: in vivo; conditions: orally administered riboflavin
[4] = test system: Clostridium group XIVa; assay: Riboflavin intervention trial: FISH count of Clostridium group XIVa in fecal samples; format: in vivo, human; conditions: 8 volunteers, 100 mg/day oral riboflavin for two weeks
Protocol: as §1, §2

[5] = test system: Enterobacteriaceae, E. coli-like bacteria; assay: Riboflavin intervention trial: count of E. coli-like bacteria in fecal samples; format: in vivo, human
Protocol: as §1, §2

[6] = test system: Enterococci; assay: Riboflavin intervention trial: count of Enterococci in fecal samples; format: in vivo, human; conditions: during the intervention, 100 mg/day riboflavin
Protocol: as §1, §2

SMILES: N[C@@H](CS)C(=O)O [cysteine]
- protective effect on faecalibacteria against ambient air exposure [1]: provide the protective effect

SMILES: O=C1O[C@H]([C@@H](O)CO)C(O)=C1O [ascorbic acid]
- protective effect on faecalibacteria against ambient air exposure [1]: not observed

SMILES: Cc1cc2nc3c(=O)[nH]c(=O)nc-3n(C[C@H](O)[C@H](O)[C@H](O)CO)c2cc1C [riboflavin]
- percentage F. prausnitzii of the total bacteria ([2]; 8 volunteers, 100 mg/day oral riboflavin for 14 days, feces): increased in 7 out of 8 samples
- number of faecalibacteria in fecal samples ([2]; 8 volunteers, 1 oral dose of 100 mg riboflavin per day for 14 days, pre, during, post intake, FISH): increased during intake and decreased again when the intake ceases
- ratio faecalibacteria/Clostridium group XIVa ([2]; calculated from before and from during intake, 100 mg/day riboflavin): increased in all cases
- protective effect on faecalibacteria against ambient air exposure [1]: provide the protective effect
- butyrate production [3]: enhanced
- number of Clostridium group XIVa bacteria in fecal samples [4]: did not increase
- number of E. coli(-like bacteria) in fecal samples ([5]; during riboflavin intake, 100 mg/day for two weeks, all individuals tested): decreased or remained the same
- ratio of faecalibacteria to E. coli-like bacteria ([5]; upon administration of riboflavin, 100 mg/day): the ratio shifted towards faecalibacteria
- number of Enterococci in fecal samples [6]: did not increase during the intervention

SMILES: O=c1c(O)c(-c2ccc(O)c(O)c2)oc2cc(O)cc(O)c12 [quercitin]
- protective effect on faecalibacteria against ambient air exposure [1]: not observed
